Consider ten molecules from patent publication US5506268A, “Use of isovaleramide as a mild anxiolytic and sedative agent” (priority 1993, dated 1996).

≈ marks a conversion by molar mass, not a printed value. Where “and” joins values, the source holds several entries; their conditions need not be identical. Identical values can stand only once. Entries after “also recorded” stand apart in the source; their conditions may differ. Like-named read-outs stand apart in the source and are kept apart here. Where only a bound is given, the exact number is not on record here.

What is called LD50 is the dose at which mortality reaches 50%. Low values mean a more toxic substance, high ones a less toxic substance.

The subject of series [1] is male rats. Description: Spontaneous locomotor activity measured electronically (sedative effect). It is filed as in vivo, rat. The settings on record: for relative potency as strong sedative-hypnotic agent, valnoctamide versus isovaleramide: FIG. 3. An excerpt: General sedative effects can also be measured electronically by recording drug-induced decreases in spontaneous locomotor activity in treated experimental animals, as shown in FIG. 3.

The subject of series [2] is male mice. The conditions noted are these: Roszkowski and Govier 1962; cited from earlier work.
For series [3] the following is noted: cited from earlier work.
The subject of series [4] is male rats. Description: Hypnotic activity (loss of the righting reflex) in rats. The conditions noted are these: Rattus norvegicus, ip, read-out: hypnotic dose.
Protocol: Hypnotic activity was assessed by simply determining the doses of the test substances (administered by IP injection) sufficient to cause a loss of the righting reflex (see above) and an apparent loss of consciousness and responsiveness.
The test system of series [5] is aggressive experimental animals and anxious humans. The conditions noted are these: cited from earlier work.
In series [6] the test system is BCA-1. Description: In vitro cytotoxicity (cell growth inhibition), BCA-1. It is filed as cell-based, human and murine. The conditions noted are these: read-out: EC50 (concentration that inhibited cell growth by 50%). How it is done: (§1) The valepotriate compounds valtrate, didrovaltrate and acevaltrate were compared with isovaleramide with respect to their effects on various human and murine tumor cell lines. The cells at log-phase growth were treated with various concentrations of test substances for 48 hr. Growth rates were then determined by directly counting cell numbers or by protein determination. EC50 is the effective concentration of test substance that inhibited cell growth by 50%.

Series [7] has as its system KB. The series can be described thus: In vitro cytotoxicity (cell growth inhibition), KB. It is filed as cell-based, human and murine. The settings on record: Homo sapiens, read-out: EC50 (concentration that inhibited cell growth by 50%). How it is done: as §1
Series [8] deals with KB-V1. Description: In vitro cytotoxicity (cell growth inhibition), KB-V1. It is filed as cell-based, human and murine. The settings on record: Homo sapiens, read-out: EC50 (concentration that inhibited cell growth by 50%). How it is done:
as §1

In series [9] the test system is P388. The series can be described thus: In vitro cytotoxicity (cell growth inhibition), P388. The conditions noted are these: Mus musculus, read-out: EC50 (concentration that inhibited cell growth by 50%). It is filed as cell-based, human and murine. Here is the method: as §1
Series [10] deals with LUC-1. The series can be described thus: In vitro cytotoxicity (cell growth inhibition), LUC-1. It is filed as cell-based, human and murine. The settings on record: read-out: EC50 (concentration that inhibited cell growth by 50%). How it is done: as §1
Series [11] deals with MEL-2. The series can be described thus: In vitro cytotoxicity (cell growth inhibition), MEL-2. It is filed as cell-based, human and murine. The settings on record: read-out: EC50 (concentration that inhibited cell growth by 50%). How it is done:
as §1

Series [12] concerns HT-1080. The series can be described thus: In vitro cytotoxicity (cell growth inhibition), HT-1080. It is filed as cell-based, human and murine. The settings on record: Homo sapiens, read-out: EC50 (concentration that inhibited cell growth by 50%). Here is the method:
as §1

Series [13] has as its system COL-2. The series can be described thus: In vitro cytotoxicity (cell growth inhibition), COL-2. It is filed as cell-based, human and murine. The settings on record: Homo sapiens, read-out: EC50 (concentration that inhibited cell growth by 50%). How it is done:
as §1

Series [14] has as its system various human and murine tumor cell lines. Description: Cytotoxicity summary over tumor cell lines. It is filed as cell-based. The settings on record: summary of Table 1. Here is the method:
as §1

Series [15] relates to hepatic porphyria. The conditions noted are these: literature; cited from earlier work.
Series [16] relates to male mice. Description: Hypnotic activity (loss of the righting reflex) in mice. It is filed as in vivo. The settings on record: Mus musculus, ip.
The subject of series [17] is male Sprague-Dawley rats. The series can be described thus: Vogel Conflict (anxiolytic) Assay, punished licks. It is filed as in vivo, rat. The conditions noted are these: for anxiolytic activity in Vogel Conflict Assay: comparable dose levels (500-1000 mg/kg).
Description: In the Vogel Conflict Paradigm, thirsty rats are given mild electric shocks through a metal water dispenser when they try to drink. The shock is unpleasant, but not severe enough to cause overt pain. When administered anxiolytic drugs, the rats lick the dispenser more often than controls. Assessment of anxiolytic effects is thus measured as an increased number of licks.
Animals (male Sprague-Dawley rats, 250-300 g) are deprived of water for 24 hr and are then placed into a clear Plexiglass box (45 cm×25 cm×20 cm) which rests on a grid of stainless steel bars. A circuit between the grid bars and the drinking spout is established with a silver electrode in a drinking bottle placed in the chamber. The animals are allowed to lick the water dispenser for 5 min without shock; those animals that fail to lick are excluded from further study.
The animals are returned to the home colony and are again deprived of water for 24 hr and replaced in the chamber and allowed to lick for 1 min without shock. Then a 1 milliamp current (shock) is maintained for 4 min at the drinking spout. Only the animals showing 50% suppression in licking behavior compared to the first session are included in further testing.
The test substances are injected intraperitoneally (IP) after this session, and 30 min later the animals are again placed into the chamber. Again the animals are allowed to lick without shock for 1 min and the shock is instituted for the remaining 4 min. The number of punished licks during this time is used to assess anxiolytic activity.
The "anxiolytic index" is defined as the ratio of the number of punished licks of test animals to that of control animals during a 4-min period. An anxiolytic index greater than one indicates anxiolytic ("calmative") activity. In practice, it is considered that significant "calmative" activity is observed when the anxiolytic index is greater than 1.5.
Male Sprague-Dawley rats (250-300 g) were deprived of water for 24 hours before testing. The animals were allowed one five-minute period of drinking in the experimental chamber before receiving the test substances at the indicated doses. Thirty minutes later, the animals were returned to the chamber and allowed to drink for one minute without punishment. For the remaining four minutes, a shock was delivered to the drinking spout and the number of punished licks was recorded. Four or five animals were tested in each group.
The nature of series [18]: Acute toxicity (LD50) and therapeutic index. The settings on record: mouse, in vivo; mice, IP. It is filed as in vivo. How it is done:
(§2) Convulsant activity was tested for N,N-diethylisovaleramide and isovaleramide itself. The potential for CNS-stimulating and convulsant properties was assessed by administering appropriate doses of the test substances IP to rodents (male mice and rats). […] At the highest dose of isovaleramide tested (4000 mg/kg IP), some deaths resulted among the test animals (male mice) after sleeping for several days, apparently from respiratory depression. […] Further testing of isovaleramide at still higher dose levels was precluded by its solubility limits and the consequently overly large injection volumes required.

Series [19] deals with male mice. The series can be described thus: Acute toxicity (LD50) and therapeutic index. It is filed as in vivo. The conditions noted are these: male mice, 4000 mg/kg IP. How it is done: as §2
Series [20] deals with male mice. The series can be described thus: Direct observation of sedation / general activity level. It is filed as in vivo, mouse. The settings on record: for minimal effective dose: Mus musculus, mice, IP; for observed sedative effects: male mice. Here is the method: Sedative activity elicited by a test substance can be observed directly in experimental animals by a decrease in spontaneous locomotor activity, e.g., in open-field observation experiments. In such experiments, test animals are administered the test substance (usually by IP injection) and, after a suitable waiting period (usually 5-30 min), are placed into an open-field test chamber, which consists of a transparent plastic box with a clearly visible grid painted on the bottom (or floor). The numbers of excursions across the floor grids are then counted over a specified time period (usually 1-3 hours) and are subsequently compared with the numbers obtained from similarly treated saline controls. The number of grid crossings counted gives a direct measurement of the general activity level (measured as spontaneous locomotor activity) of each test animal in question. Sedative activity can be expressed as a percentage of the control level of spontaneous locomotor activity as measured by grid crossings per unit time.

Series [21] concerns experimental animals. The settings on record: cited from earlier work; for narcotic and hypnotic effects: experimental animals.
The conditions of series [22]: in vivo; cited from earlier work.
The test system of series [23] is rats. The settings on record: rat, in vivo. How it is done: as §2
For series [24], the system named is male mice. The conditions noted are these: mouse, in vivo, ip. How it is done: as §2
Series [25] deals with male Sprague-Dawley rats. The conditions noted are these: injected at therapeutically effective doses; cited from earlier work.

With `CCC(C)C(CC)C(N)=O` (racemic) [valnoctamide], the “relative potency as strong sedative-hypnotic agent, valnoctamide versus isovaleramide” value in series [1] is on record as “about ten times more potent than isovaleramide”. For the same molecule, the therapeutic index in [2] was around 11.4. The water solubility result in series [3] is “very water insoluble”. Also, the minimal effective dose in [4] is 250 mg/kg and 1750 µmol/kg. Moreover, in series [5], the “tranquilizing and anxiety-reducing properties” value was “purported to exhibit tranquilizing and anxiety-reducing properties”.

For the molecule `CC(=O)OCC1=CO[C@@H](OC(=O)CC(C)C)[C@H]2C1=C[C@H](OC(=O)CC(C)(C)OC(C)=O)[C@]21CO1` [Acevaltrate], the EC50 in series [6] (BCA1, BCA-1, 48 hr) stood at 1.94 µg/mL (≈ 4.04 µM); in [7] (48 hr), 2.7 µg/mL (≈ 5.62 µM); in series [8] (KB-V1, 48 hr), 2.26 µg/mL (≈ 4.7 µM); in [9] (P388, 48 hr), 0.88 µg/mL (≈ 1.83 µM); in series [10] (LUC1, LUC-1, 48 hr), 4.3 µg/mL (≈ 8.95 µM); in [11] (MEL2, MEL-2, 48 hr), 0.75 µg/mL (≈ 1.56 µM). For the same molecule, the EC50 in [12] (HT-1080, 48 hr) stood at 2.05 µg/mL (≈ 4.27 µM); in series [13] (Col2, COL-2, 48 hr) it was 2.89 µg/mL (≈ 6.01 µM).

Turning to `CC(=O)O[C@H]1C[C@@H]2C(COC(=O)CC(C)C)=CO[C@@H](OC(=O)CC(C)C)[C@@H]2[C@@]12CO2` [Didrovaltrate], the EC50 in series [6] (BCA1, BCA-1, 48 hr) turned out to be 0.7 µg/mL (≈ 1.65 µM); in series [7] (48 hr), 2.03 µg/mL (≈ 4.78 µM); in series [8] (KB-V1, 48 hr), 1.29 µg/mL (≈ 3.04 µM); in [9] (P388, 48 hr), 0.19 µg/mL (≈ 0.448 µM); in [10] (LUC1, LUC-1, 48 hr) it was 2.91 µg/mL (≈ 6.86 µM); in [11] (MEL2, MEL-2, 48 hr) it was 0.42 µg/mL (≈ 0.989 µM). The EC50 in [12] (HT-1080, 48 hr) worked out at 0.7 µg/mL (≈ 1.65 µM); in series [13] (Col2, COL-2, 48 hr), 1.49 µg/mL (≈ 3.51 µM).

On to `CC(C)CC(N)=O` [Isovaleramide, isovaleramide], for which the cytotoxicity entry in [14] is reported as “no cytotoxicity”. Further, the hepatic porphyria-inducing properties entry in series [15] is given as “no hepatic porphyria-inducing properties”. The “decrease in spontaneous locomotor activity” value in [1] (250 mg/kg IP) is reported as “decreased locomotor activity to a level comparable to that induced by valnoctamide at 25 mg/kg”; in [1] (500 mg/kg IP) it was “comparable to that induced by valnoctamide at 50 mg/kg IP”. For the same molecule, the “relative potency as strong sedative-hypnotic agent, valnoctamide versus isovaleramide” value in [1] was “only about one-tenth of the potent sedative-hypnotic properties exhibited by valnoctamide”. Moreover, the EC50 in series [6] (BCA1, 48 h) is above 20 µg/mL; in series [7] (48 h), above 20 µg/mL; in series [8] (KB-V1, 48 h) it was above 20 µg/mL; in [9] (P388, 48 h), above 20 µg/mL; in series [10] (LUC1, 48 h), above 20 µg/mL; in series [11] (MEL2, 48 h), above 20 µg/mL. The EC50 in [12] (HT-1080, 48 h) was above 20 µg/mL; in series [13] (Col2, 48 h), above 20 µg/mL. The minimal effective dose in series [16] (mice, IP, not hypnotic even at 1000 mg/kg, hypnotic at 2000 mg/kg, read-out: hypnotic dose) is above 1000 mg/kg; in series [16] (mice, IP, not hypnotic even at this dose, read-out: hypnotic dose), above 9900 µmol/kg; in [16] (very large doses approaching toxic dose levels, read-out: dose producing hypnosis), above 1000 mg/kg; in [20] (naive observers, read-out: dose at which naive observers distinguish treated mice from saline controls) it was 250 mg/kg; in series [20] (very astute observers, read-out: dose at which very astute observers distinguish treated mice from controls), 100 mg/kg. Further, the “increase in the number of punished licks over controls” value in series [17] (IP, 500-1000 mg/kg) is given as “approximate three-fold increase”. This molecule also had a median lethal dose (LD50) in series [18] above 4000 mg/kg. Besides, the selectivity ratio in series [18] is around 40. Moreover, the survival entry in [19] was “more than half of the experimental animals survived”. For the same molecule, in series [19] (after sleeping for several days), the mortality entry is on record as “some deaths”. The observed sedative effects entry in [20] (1000 mg/kg IP) was “clearly sedentary”; in series [20] (500 and 1000 mg/kg IP), “much more pronounced”. For the same molecule, the “clinical usefulness as a hypnotic” value in [21] (Impens 1912, Junkmann 1937) is given as “clinically useless as a hypnotic”. The “narcotic and hypnotic effects” value in series [21] was “narcotic and hypnotic effects in experimental animals when administered in very high doses; also recorded: hypnotic activity only when administered to experimental animals in very high doses”. Also, in series [22], the anticonvulsant properties entry is “no anticonvulsant properties”. Moreover, the water solubility result in [3] was “essentially water soluble”.

For `CC(C)CC(=O)O` [Isovaleric acid], the “narcotic and hypnotic effects” value in series [21] is “narcotic and hypnotic effects in experimental animals when administered in very high doses”.

For `CCN(CC)C(=O)CC(C)C` [N,N-Diethylisovaleramide, N,N-diethylisovaleramide], the “dose with CNS-stimulating (excitant) activity” value in [17] (Vogel assay (FIG. 2)) is recorded as 50 mg/kg. The “CNS-stimulating, anxiogenic and convulsant properties” value in series [23] is “CNS-stimulating, anxiogenic, and convulsant properties”. In addition, the “dose at which potent convulsant” value in series [23] (ip) was found to be 250 mg/kg. In addition, in [24], the “dose causing death following convulsive seizures” value came out at 500 mg/kg; the “dose with potent CNS-stimulating and convulsant properties” value came out at 250 mg/kg.

In the case of `CC(=O)OCC1=CO[C@@H](OC(=O)CC(C)C)[C@H]2C1=C[C@H](OC(=O)CC(C)C)[C@]21CO1` [Valtrate], the EC50 was 0.41 µg/mL (≈ 0.97 µM) in series [6] (BCA1, 48 h); 0.51 µg/mL (≈ 1.21 µM) in [7] (48 h); 0.72 µg/mL (≈ 1.7 µM) in [8] (KB-V1, 48 h); 0.06 µg/mL (≈ 0.142 µM) in series [9] (P388, 48 h); 2 µg/mL (≈ 4.73 µM) in series [10] (LUC1, 48 h); 0.39 µg/mL (≈ 0.923 µM) in series [11] (MEL2, 48 h). The EC50 in series [12] (HT-1080, 48 h) was 0.41 µg/mL (≈ 0.97 µM); in series [13] (Col2, 48 h) it was 0.59 µg/mL (≈ 1.4 µM).

As for `CN1C(=O)CN=C(c2ccccc2)c2cc(Cl)ccc21` [diazepam], the “increase in the number of licks” value in [25] is listed as “ten-fold increase”.

Turning to `CCCC(N)=O` [n-Butyramide], in series [17] (IP), the “anxiolytic activity in Vogel Conflict Assay” value is “no significant anxiolytic activity”.

As for `OC[C@H]1O[C@@](CO)(O[C@H]2O[C@H](CO)[C@@H](O)[C@H](O)[C@H]2O)[C@@H](O)[C@@H]1O` [sucrose], in [17] (IP), the “anxiolytic activity in Vogel Conflict Assay” value was “no significant anxiolytic activity”.
